Results reported in patent US20140228543A1, “MODIFIED AND DERIVATIZED ß-GLUCAN COMPOUNDS, COMPOSITIONS, AND METHODS” (Biothera, Inc., priority 2011, published 2014).

Columns and labels:
Type in all cases: cell-based
[1] = tested on: human peripheral blood mononuclear cells; experiment: Oxidative burst (superoxide production by cytochrome c reduction) on immobilized glucan; conditions: human PBMCs
Protocol: Dilutions of MMW and BT-1222 were prepared out-of-plate in water. Subsequently, 50 μL of each dilution were added to triplicate wells of Costar® Universal-Bind™ microtiter plates. For immobilizing the glucans on the plate, the plate was irradiated for 5 min in a UV cross-linker, and then incubated at 50° C. until completely dried. After checking for complete dryness of the plate, it was cross-linked again under UV for 5 minutes. The microtiter plates were then blocked with 0.25% bovine serum albumin (BSA) in DPBS for 30 min at room temperature. Each microtiter plate included positive control wells and negative control wells to which only water with no polysaccharide was added at this point.
The oxidative burst response was then determined by standard methods by measuring SO production through the reduction of cytochrome c. Peripheral blood mononuclear cells (PBMCs) were resuspended in HBSS/HEPES buffer with 0.25% BSA at a concentration of 4×10^6 cells/mL and maintained at 37° C. until added to the plate. A 100 μL aliquot of 200 μM bovine cytochrome c solution in HBSS/HEPES buffer previously incubated at 37° C. was added to each well. Approximately 4.0×10^5 cells, in a 100 μL volume, were subsequently added to each well of the microtiter plate. The negative assay control consisting of cells and cytochrome c was added in the uncoated negative control wells. As a positive assay control, just before reading the plate, phorbol myristate acetate (PMA) at 100 ng/mL was added as the stimulus to the cells in the uncoated positive control wells to achieve a final concentration of 50 ng/mL. The plate was maintained at 37° C., and optical density (OD) in each well was read at 550 nm every 15 min for 120 min using a spectrophotometer. For each concentration of polysaccharide, the OD change (ΔOD) was calculated from the time of minimum response (1 min) to the time of maximum response (120 mins). The rate of SO production (nmoles of SO/10^6 cells/120 mins) was calculated from the ΔOD value and the extinction coefficient of cytochrome c (21.1×103 M-1 cm-1). […]

[2] = tested on: human neutrophils; experiment: iC3b deposition on neutrophils (flow cytometry)
Protocol: This ability was evaluated by comparing the levels of iC3b complement fragment detected on human neutrophils with the derivative versus parent β-glucan-bound.
Enriched neutrophils were resuspended at 1×10^6 cells/mL in RPMI 1640 supplemented with 10% serum. The parent or the derivatized glucans at 200, μg/mL hexose concentration were added to neutrophils and incubated in a 37° C., 5% C02 humidified incubator for 2 hr. After incubation, cells were washed twice with FACS buffer (HBSS supplemented with 1% FBS and 0.1% sodium azide) to remove any unbound β-glucan, stained with a neo-epitope specific anti-iC3b Ab and PE-conjugated goat anti-mouse IgG and subsequently analyzed by flow cytometry.
Table 1 below lists the fold change of mean fluorescence intensity (MFI) values of iC3b staining on neutrophils treated with each of the parent or derivatized glucans over that of PBS control-treated cells.

[3] = tested on: human neutrophils; experiment: β-glucan binding on neutrophils (BfD IV staining, flow cytometry)
Protocol: This ability was evaluated by comparing the levels of neutrophil-bound parent versus the derivatives of β-glucans detected by BfD IV, a monoclonal antibody (MAb) specific for β-1,3/1,6 glucans. […] Table 2 lists the fold change of MFI values of BfD IV staining on neutrophils treated with each of the parent and derivatized glucans over that of PBS control-treated cells.
Enriched neutrophils were resuspended at 1×10^6 cells/mL in RPMI 1640 supplemented with 10% serum. The parent or the derivatized glucans at 200, μg/mL hexose concentration were added to neutrophils and incubated in a 37° C., 5% CO2 humidified incubator for 2 hr. After incubation, cells were washed twice with FACS buffer (HBSS supplemented with 1% FBS and 0.1% sodium azide) to remove any unbound β-glucan, and subsequently treated with Fc block. Post Fc block step, cells were stained with the BfD IV Ab for 30 min at 4° C. and washed twice with cold FACS buffer. Cells were then incubated with FITC-conjugated F(ab′)2 goat anti-mouse IgM for 30 min at 4° C. and washed once with cold FACS buffer before fixing with 1% paraformaldehyde. Events were collected on a LSRII flow cytometer and analysis was performed using FlowJo software.
Table 2 summarizes the fold change of MFI values of BfD IV staining on neutrophils treated with each of the parent, or derivatized β-glucans, over that of PBS control-treated cells.

[4] = tested on: human neutrophils; experiment: Neutrophil migration (chemotaxis) to serum-treated glucan
Protocol: This ability was measured by comparing the migratory capacity of human neutrophils to parent medium molecular weight (MMW) yeast β-glucan versus one of its derivatives, BT-1222. […] In contrast, the migration of neutrophils to MMW β-glucan or BT-1222 was 3.1 fold and 2.8 fold over medium alone, respectively.
Heparinized peripheral blood was obtained from healthy volunteers, and neutrophils were isolated by density gradient centrifugation with Ficoll-Paque followed by 3% […] sedimentation. Residual erythrocytes were removed by hypotonic lysis. Neutrophils were resuspended at 200,000 cells/ml in RPMI with 3% autologous serum (AS). MMW (3.3 mg/mL), BT-1222 (3.3 mg/mL) and PBS control were mixed with AS in 1:1 ratio and placed in a 37° C. water bath for 30 minutes. After incubation, Imprime and benzylamine-Imprime were diluted in RPMI to achieve 100, 50, 25, and 10 μg/ml concentrations with final concentration of serum being 3%. PBS control was diluted in a similar manner. […] The plate was placed in 37° C. incubator for 1 hour, lysed with 10 μl Cell-titer glo and read for luminescence on the M5 plate reader. Fold over media migration (chemotaxis) was calculated by dividing the RLU (relative luminescence units) for the treatment groups over migration to media (chemokinesis).

[5] = 200 μg/mL hexose concentration, 2 hr, 37° C., 10% serum

Q: Which results are given for “Benzyl Amine MMW Yeast Glucan Analog [BT-1222]”?
A: rate of superoxide production in comparison to MMW ([1]; at each concentration tested): higher; oxidative burst as measured by rate of superoxide production ([1]; plate-immobilized glucan, 120 min): dose dependent oxidative burst; Approximate Fold Increase/Decrease in MFI over Parent Compound (iC3b) [2, 5]: 3.0 fold; MFI(ic3b) compound/MFI(ic3b) PBS [2, 5]: 5.9 ± 2.2; staining of iC3b on glucan-bound neutrophils compared with MMW-bound neutrophils ([2]; FIG. 3 histogram): higher; Approximate Fold Increase/Decrease in MFI over Parent Compound (BfD IV) [3, 5]: 3.1 fold; MFI(BID IV) compound/MFI(BID IV) PBS [3, 5]: 13.2 ± 3.6; staining of BfD IV on glucan-bound neutrophils compared with MMW-bound neutrophils ([3]; histogram): higher; migration of neutrophils compared with parent MMW ([4]; FIG. 2): comparable; migration of neutrophils, fold over medium alone ([4]; glucan pre-incubated with autologous serum, 1 hour at 37° C.): 2.8 fold
